Test results as given in US12514858B2, “CD38 inhibitors” (Astellas Engineered Small Molecules US, Incorporated, priority 2020, dated 2026).

Target: Human CD38 (Homo sapiens (Human), UniProt P28907)
Assay: Determination of IC50 against human CD38 (CD38 Inhibitor Screening Assay Kit, glycohydrolase activity, fluorescence)
Type: biochemical
Conditions: CD38 hydrolase enzyme, 30 min preincubation at room temperature, F-NAD substrate, excitation 300 nm, emission 410 nm; read-out: hCD38 IC50
Description: CD38 hydrolase buffer (4×) was thawed on ice and 1×CD38 hydrolase buffer was prepared by diluting 4×CD38 hydrolase buffer with water. CD38 hydrolase enzyme was diluted to […] with 1×CD38 hydrolase buffer (10 ng/well). Master mix was prepared by mixing equal volumes of water and CD38 hydrolase buffer (4×) and 10 μl of the mix was added to all the wells. Following master mix addition, 10 μl of the inhibitors and 20 μl of CD38 hydrolase enzyme were added to the wells. For wells designated blank, 10 μl and 20 μl of 1× CD38 hydrolase buffer was added respectively in place of […]. The plate was covered and incubated 30 min at room temperature with slow shaking at 400 rpm. After 30 min incubation, the plate was removed and 10 μl of diluted F-NAD substrate was added to all the wells. The plate is incubated for 10 min, spun at 1200 rpm for 30 secs to remove bubbles and read in Tecan Spark using a fluorometer setting of excitation 300 nm and emission 410 nm. The reading for the blank was subtracted from all the values. IC50 for the test compounds were determined by using Graphpad prism software v7.0.

Sequence of Human CD38 (P28907 whole entry): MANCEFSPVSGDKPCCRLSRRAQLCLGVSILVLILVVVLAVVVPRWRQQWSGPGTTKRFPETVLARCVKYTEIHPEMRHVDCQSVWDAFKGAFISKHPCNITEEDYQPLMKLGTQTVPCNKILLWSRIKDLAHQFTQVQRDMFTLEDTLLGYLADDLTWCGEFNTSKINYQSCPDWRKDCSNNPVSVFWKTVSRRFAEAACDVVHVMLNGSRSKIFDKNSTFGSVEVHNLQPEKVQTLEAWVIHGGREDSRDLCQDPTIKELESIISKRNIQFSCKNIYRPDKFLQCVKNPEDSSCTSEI

SMILES: COCCO[C@H]1CC[C@H](NC(=O)c2cccc(-n3ccnc3)n2)CC1 [Ex 11, 6-(1H-imidazol-1-yl)-N-((1r,4r)-4-(2-methoxyethoxy)cyclohexyl)picolinamide]
- IC50: 49 nM

SMILES: COCCO[C@H]1CC[C@H](NC(=O)c2cc(-c3cncs3)nc(-n3ccnc3)c2)CC1 [Ex. 1, N-((1r,4r)-4-(2-methoxyethoxy)cyclohexyl)-2-(thiazol-5-yl)-6-(1H-imidazol-1-yl)isonicotinamide]
- IC50: 60 nM

SMILES: COCCO[C@H]1CC[C@H](NC(=O)c2cc(-c3cncs3)nc(-c3cncs3)c2)CC1 [Ex. 2, N-((1r,4r)-4-(2-methoxyethoxy)cyclohexyl)-2,6-di(thiazol-5-yl)isonicotinamide]
- IC50: > 100 nM

SMILES: COCCO[C@H]1CC[C@H](NC(=O)c2cc(-c3cnn(C)c3)nc(-c3cncs3)c2)CC1 [Ex. 3, N-((1r,4r)-4-(2-methoxyethoxy)cyclohexyl)-2-(1-methyl-1H-pyrazol-4-yl)-6-(thiazol-5-yl)isonicotinamide]
- IC50: 34 nM

SMILES: COCCO[C@H]1CC[C@H](NC(=O)c2cc(-c3cncs3)nc(C(F)(F)F)c2)CC1 [Ex. 4, N-((1r,4r)-4-(2-methoxyethoxy)cyclohexyl)-2-(thiazol-5-yl)-6-(trifluoromethyl)isonicotinamide]
- IC50: 3500 nM

SMILES: COCCO[C@H]1CC[C@H](NC(=O)c2cc(-c3cncs3)nc(-c3cncs3)n2)CC1 [Ex. 5, N-((1r,4r)-4-(2-methoxyethoxy)cyclohexyl)-2,6-di(thiazol-5-yl)pyrimidine-4-carboxamide]
- IC50: 256 nM

SMILES: COCCO[C@H]1CC[C@H](NC(=O)c2cc(-c3cnn(C)c3)nc(-c3cncs3)n2)CC1 [Ex. 6, N-((1r,4r)-4-(2-methoxyethoxy)cyclohexyl)-6-(1-methyl-1H-pyrazol-4-yl)-2-(thiazol-5-yl)pyrimidine-4-carboxamide]
- IC50: 53 nM

SMILES: COCCO[C@H]1CC[C@H](NC(=O)c2cc(SC)nc(-c3cncs3)n2)CC1 [Ex. 7, N-((1r,4r)-4-(2-methoxyethoxy)cyclohexyl)-6-(methylthio)-2-(thiazol-5-yl)pyrimidine-4-carboxamide]
- IC50: > 10000 nM

SMILES: COCCO[C@H]1CC[C@H](NC(=O)c2cc(-c3cnn(C)c3)cc(-c3cncs3)n2)CC1 [Ex. 8, N-((1r,4r)-4-(2-methoxyethoxy)cyclohexyl)-4-(1-methyl-1H-pyrazol-4-yl)-6-(thiazol-5-yl)picolinamide]
- IC50: 286 nM

SMILES: COCCO[C@H]1CC[C@H](NC(=O)c2cccc(-c3cncs3)n2)CC1 [Ex. 9, N-((1r,4r)-4-(2-methoxyethoxy)cyclohexyl)-6-(thiazol-5-yl)picolinamide]
- IC50: 10000 nM

SMILES: COCCO[C@H]1CC[C@H](NC(=O)c2cc(-c3c(C)nn(C)c3C)cc(-n3ccnc3)n2)CC1 [Ex. 14, 6-(1H-imidazol-1-yl)-N-((1r,4r)-4-(2-methoxyethoxy)cyclohexyl)-4-(1,3,5-trimethyl-1H-pyrazol-4-yl)picolinamide]
- IC50: 24 nM

SMILES: COCCO[C@H]1CC[C@H](NC(=O)c2cc(Cl)cc(-n3ccnc3)n2)CC1 [Ex. 18, 4-chloro-6-(1H-imidazol-1-yl)-N-((1r,4r)-4-(2-methoxyethoxy)cyclohexyl)-picolinamide]
- IC50: 16 nM

SMILES: COCCO[C@H]1CC[C@H](NC(=O)c2cc(C(F)(F)F)cc(-n3ccnc3)n2)CC1 [Ex. 19, 6-(1H-imidazol-1-yl)-N-((1r,4r)-4-(2-methoxyethoxy)cyclohexyl)-4-(trifluoromethyl)picolinamide]
- IC50: 45.9 nM

SMILES: COCCO[C@H]1CC[C@H](NC(=O)c2cc(F)cc(-n3ccnc3)n2)CC1 [Ex. 20, 4-fluoro-6-(1H-imidazol-1-yl)-N-((1r,4r)-4-(2-methoxyethoxy)cyclohexyl)picolinamide]
- IC50: 21.5 nM

SMILES: COCCO[C@H]1CC[C@H](NC(=O)c2cc(-n3ccnc3)nc(-n3ccnc3)c2)CC1 [Ex. 22, 2,6-di(1H-imidazol-1-yl)-N-((1r,4r)-4-(2-methoxyethoxy)cyclohexyl)isonicotinamide]
- IC50: 17.9 nM

SMILES: COCCO[C@H]1CC[C@H](NC(=O)c2cc(-c3cnn(C)c3)nc(-n3ccnc3)c2)CC1 [Ex. 23, 2-(1H-imidazol-1-yl)-N-((1r,4r)-4-(2-methoxyethoxy)cyclohexyl)-6-(1-methyl-1H-pyrazol-4-yl)isonicotinamide]
- IC50: 21 nM

SMILES: CCn1cc(-c2cc(C(=O)N[C@H]3CC[C@H](OCCOC)CC3)cc(-n3ccnc3)n2)cn1 [Ex. 24, 2-(1-ethyl-1H-pyrazol-4-yl)-6-(1H-imidazol-1-yl)-N-((1r,4r)-4-(2-methoxyethoxy)cyclohexyl)isonicotinamide]
- IC50: 153 nM

SMILES: COCCO[C@H]1CC[C@H](NC(=O)c2cc(-c3cnn(C(C)C)c3)nc(-n3ccnc3)c2)CC1 [Ex. 25, 2-(1H-imidazol-1-yl)-6-(1-isopropyl-1H-pyrazol-4-yl)-N-((1r,4r)-4-(2-methoxyethoxy)cyclohexyl)isonicotinamide]
- IC50: 12 nM

SMILES: COCCO[C@H]1CC[C@H](NC(=O)c2cc(-c3ccn(C)n3)nc(-n3ccnc3)c2)CC1 [Ex. 26, 2-(1H-imidazol-1-yl)-N-((1r,4r)-4-(2-methoxyethoxy)cyclohexyl)-6-(1-methyl-1H-pyrazol-3-yl)isonicotinamide]
- IC50: 150 nM

SMILES: COCCO[C@H]1CC[C@H](NC(=O)c2cc(C)cc(-n3ccnc3)n2)CC1 [Ex. 29, 6-(1H-imidazol-1-yl)-N-((1r,4r)-4-(2-methoxyethoxy)cyclohexyl)-4-methylpicolinamide]
- IC50: 31 nM

SMILES: COCCO[C@H]1CC[C@H](NC(=O)c2cc(-n3ccnc3)cc(-c3cnn(C)c3)n2)CC1 [Ex. 30, 4-(1H-imidazol-1-yl)-N-((1r,4r)-4-(2-methoxyethoxy)cyclohexyl)-6-(1-methyl-1H-pyrazol-4-yl)picolinamide]
- IC50: 429 nM

SMILES: O=C(N[C@H]1CC[C@H](O)CC1)c1cccc(-n2ccnc2)n1 [Ex. 31, N-((1r,4r)-4-hydroxycyclohexyl)-6-(1H-imidazol-1-yl)picolinamide]
- IC50: 54 nM

SMILES: O=C(NC1CCCCC1)c1cccc(-n2ccnc2)n1 [Ex. 32, N-cyclohexyl-6-(1H-imidazol-1-yl)picolinamide]
- IC50: 53 nM

SMILES: O=C(N[C@H]1CC[C@H](O)CC1)c1ccnc(-n2ccnc2)n1 [Ex. 34, N-((1r,4r)-4-hydroxycyclohexyl)-2-(1H-imidazol-1-yl)pyrimidine-4-carboxamide]
- IC50: 25.7 nM

SMILES: COCCO[C@H]1CC[C@H](NC(=O)c2cc(C)nc(-n3ccnc3)n2)CC1 [Ex. 35, 2-(1H-imidazol-1-yl)-N-((1r,4r)-4-(2-methoxyethoxy)cyclohexyl)-6-methylpyrimidine-4-carboxamide]
- IC50: 7.4 nM

SMILES: COCCO[C@H]1CC[C@H](NC(=O)c2cc(C(F)(F)F)nc(-n3ccnc3)n2)CC1 [Ex. 36, 2-(1H-imidazol-1-yl)-N-((1r,4r)-4-(2-methoxyethoxy)cyclohexyl)-6-(trifluoromethyl)pyrimidine-4-carboxamide]
- IC50: 39 nM

SMILES: COCCO[C@H]1CC[C@H](NC(=O)c2cc(SC)cc(-n3ccnc3)n2)CC1 [Ex. 37, 6-(1H-imidazol-1-yl)-N-((1r,4r)-4-(2-methoxyethoxy)cyclohexyl)-4-(methylthio)picolinamide]
- IC50: 42 nM

SMILES: COCCO[C@H]1CC[C@H](NC(=O)c2cc(C(C)O)cc(-n3ccnc3)n2)CC1 (stereo partly shown) [Ex. 38, 4-(1-Hydroxyethyl)-6-(1H-imidazol-1-yl)-N-((1r,4r)-4-(2-methoxyethoxy)cyclohexyl)picolinamide]
- IC50: 310 nM

SMILES: COCCO[C@H]1CC[C@H](NC(=O)c2cc(S(C)(=O)=O)cc(-n3ccnc3)n2)CC1 [Ex. 39, 6-(1H-imidazol-1-yl)-N-((1r,4r)-4-(2-methoxyethoxy)cyclohexyl)-4-(methylsulfonyl)picolinamide]
- IC50: 137 nM

SMILES: COCCO[C@H]1CC[C@H](NC(=O)c2cc(C(C)(C)O)cc(-n3ccnc3)n2)CC1 [Ex. 40, 4-(2-Hydroxypropan-2-yl)-6-(1H-imidazol-1-yl)-N-((1r,4r)-4-(2-methoxyethoxy)cyclohexyl)picolinamide]
- IC50: 1900 nM

SMILES: O=C(N[C@H]1CC[C@H](OC(F)F)CC1)c1ccnc(-n2ccnc2)n1 [Ex. 41, N-((1r,4r)-4-(difluoromethoxy)cyclohexyl)-2-(1H-imidazol-1-yl)pyrimidine-4-carboxamide]
- IC50: 16 nM

SMILES: Cc1cc(C(=O)N[C@H]2CC[C@H](OC(F)F)CC2)nc(-n2ccnc2)n1 [Ex. 42, N-((1r,4r)-4-(difluoromethoxy)cyclohexyl)-2-(1H-imidazol-1-yl)-6-methylpyrimidine-4-carboxamide]
- IC50: 4.8 nM

SMILES: COCCO[C@H]1CC[C@H](NC(=O)c2cc(C#N)cc(-n3ccnc3)n2)CC1 [Ex. 43, 4-Cyano-6-(1H-imidazol-1-yl)-N-((1r,4r)-4-(2-methoxyethoxy)cyclohexyl)picolinamide]
- IC50: 17 nM

SMILES: Cc1cc(C(=O)N[C@H]2CC[C@H](OCCO)CC2)nc(-n2ccnc2)n1 [Ex. 44, N-((1r,4r)-4-(2-hydroxyethoxy)cyclohexyl)-2-(1H-imidazol-1-yl)-6-methylpyrimidine-4-carboxamide]
- IC50: 12 nM

SMILES: COCCO[C@H]1CC[C@H](NC(=O)c2cc(C(=O)O)nc(-n3ccnc3)n2)CC1 [Ex. 45]
- IC50: 28 nM

SMILES: COCCO[C@H]1CC[C@H](NC(=O)c2cc(C)nc(-n3ccnc3)c2)CC1 [Ex. 46, 2-(1H-imidazol-1-yl)-N-((1r,4r)-4-(2-methoxyethoxy)cyclohexyl)-6-methylisonicotinamide]
- IC50: 144 nM

SMILES: COCCO[C@H]1CC[C@H](NC(=O)c2cc(C#N)nc(-n3ccnc3)n2)CC1 [Ex. 47, 6-cyano-2-(1H-imidazol-1-yl)-N-((1r,4r)-4-(2-methoxyethoxy)cyclohexyl)pyrimidine-4-carboxamide]
- IC50: 31 nM
